Like-named read-outs stand apart in the source and are kept apart here.
Tests used:
CA IX [1] = molecular target: T1, CA IX (Homo sapiens, UniProt Q16790); experiment: biochemical; conditions: for Ki: read-out: pKi (exp.) (converted)
CA IX [2] = molecular target: T1, CA IX; conditions: library compounds with IDs A… and B…; observed Ki; ref ChEMBL, BindingDB; read-out: Ki; cited from earlier work
[3] = library compounds with IDs A… and B…, from observed Ki (nM)
[4] = experimental value used for the QSPR model, library compounds (IDs A…, B…), equals log10 of Ki in nM
[5] = experimental value from the library Ki (IDs A…, B…), values equal log10 of Ki in nM

Compound: COC(=O)[C@H]1C[C@H](OS(N)(=O)=O)CN1S(=O)(=O)[C@H]1O[C@H](COC(C)=O)[C@@H](OC(C)=O)[C@H](OC(C)=O)[C@H]1OC(C)=O [B0015]
- Ki (CA IX [1]; [3]): 2 nM
- Ki (CA IX [2]): 0.002 µM

Compound: O=C(Cc1ccccc1Br)Oc1ccc2c(c1)OS(=O)(=O)C=C2 [A2451]
- Ki (CA IX [1]; [4]): 10000 nM

Compound: CCOc1nc(NCCc2ccc(S(N)(=O)=O)cc2)nc(OCC)n1 [A0719]
- log10 of Ki in nM (CA IX [1]): 1.079

Compound: Cc1ccc(-c2cc(CO)nn2-c2ccc(S(N)(=O)=O)cc2)cc1 [A0902]
- log10 of Ki in nM (CA IX [1]; [5]): 1.342

Compound: Cc1ccc(-c2nn(-c3ccc(S(N)(=O)=O)cc3)cc2-c2nc3ccccc3[nH]2)cc1 [A1267]
- log10 of Ki in nM (CA IX [1]; [5]): 1.693

Compound: COc1ccc2c(c1)/C(=N/c1ccc(C(=O)Nc3ccc(S(N)(=O)=O)cc3)cc1)C(=O)N2 [A1756, reference compound]
- log10 of Ki in nM (CA IX [1]; [5]): 2.243

Compound: NS(=O)(=O)c1ccc(-n2cc(-c3ccc(Br)cc3)c3c2ncn2nnnc32)cc1 [B0028]
- log10 of Ki in nM (CA IX [1]; [3]): 0.447

Compound: NS(=O)(=O)c1ccc(/N=C/c2ccccc2)c(F)c1 [A1026]
- log10 of Ki in nM (CA IX [1]; [4]): 1.447

Compound: CCOC(=O)c1cc(S(N)(=O)=O)c(SSc2cc(Cl)c(C(=O)OCC)cc2S(N)(=O)=O)cc1Cl [A2456]
- Ki (CA IX [1]): 10000 nM

Compound: NS(=O)(=O)c1ccc(CNC(=O)CCCNC(=O)NCc2ccccc2)cc1 [A2003]
- log10 of Ki in nM (CA IX [1]; [5]): 2.660

Compound: NS(=O)(=O)c1nnc(NS(=O)(=O)c2ccc(NC(=O)CCC(=O)O)cc2)s1 [A0151]
- log10 of Ki in nM (CA IX [1]; [5]): 0.477

Compound: CC(C)(C)OC(=O)NCCCCOc1ccc(S(N)(=O)=O)cc1 [A0486]
- log10 of Ki in nM (CA IX [1]; [4]): 0.886

Compound: COc1ccc2c(c1)/C(=N\c1ccc(NC(=O)Nc3ccc(S(N)(=O)=O)cc3)cc1)C(=O)N2 [B0174]
- log10 of Ki in nM (CA IX [1]; [3]): 0.929

Compound: CC1(C)CC(=O)C2=C(C1)N(c1ccc(S(N)(=O)=O)cc1)C1=C(C(=O)CC(C)(C)C1)C2c1ccc([N+](=O)[O-])cc1 [B0775]
- log10 of Ki in nM (CA IX [1]; [4]): 3.009

Compound: CCCN(CCC)S(=O)(=O)c1ccc(C(=O)N[C@@H](CCC(=O)O)C(N)=O)cc1 [A0921]
- log10 of Ki in nM (CA IX [1]; [5]): 1.362

Compound: CCOC(=O)NC(=S)N(CC(=O)c1ccccc1)c1ccc(S(N)(=O)=O)cc1 [A0977]
- log10 of Ki in nM (CA IX [1]; [5]): 1.398

Compound: CCCN(CCC)S(=O)(=O)c1ccc(C(=O)Nc2ccccc2[N+](=O)[O-])cc1 [A1771]
- log10 of Ki in nM (CA IX [1]; [5]): 2.283

Compound: NS(=O)(=O)c1ccc(-n2cc(CO[C@@H]3O[C@H](COCc4ccccc4)[C@@H](OCc4ccccc4)[C@H]3OCc3ccccc3)nn2)cc1 [A1497]
- log10 of Ki in nM (CA IX [1]; [3]): 1.924

Compound: CCCCC(=O)OC[C@H]1O[C@@H](n2cc(-c3ccc(S(N)(=O)=O)cc3)nn2)[C@H](OC(=O)CCCC)[C@@H](OC(=O)CCCC)[C@@H]1OC(=O)CCCC [A2148]
- log10 of Ki in nM (CA IX [1]; [4]): 2.978

Compound: Nc1c(C(=O)N/N=C2\C(=O)N(Cc3ccccc3)c3ccccc32)cnn1-c1ccc(S(N)(=O)=O)cc1 [A0861]
- log10 of Ki in nM (CA IX [1]): 1.301

Compound: CN(C)c1ccc(/N=N/c2ccc(S(N)(=O)=O)cc2)cc1 [A0408]
- log10 of Ki in nM (CA IX [1]; [5]): 0.820

Compound: NS(=O)(=O)c1ccc(CNC(=S)N[C@@H]2O[C@H](CO)[C@@H](O)[C@H](O)[C@H]2O)cc1 [A0577]
- log10 of Ki in nM (CA IX [1]): 0.944

Compound: CC(=O)NNc1ccccc1S(N)(=O)=O [A1755]
- log10 of Ki in nM (CA IX [1]): 2.243

Compound: NS(=O)(=O)c1ccc(Nc2nc(Nc3ccccc3)nc(N3CCOCC3)n2)cc1 [A0867]
- log10 of Ki in nM (CA IX [1]; [4]): 1.303

Compound: NS(=O)(=O)c1ccc(NCc2cc(Br)ccc2O)cc1 [A0114]
- log10 of Ki in nM (CA IX [1]; [5]): 0.415

Compound: NOC(=O)c1cc(Cl)c(Cl)c(C(=O)ON)c1 [B0452]
- log10 of Ki in nM (CA IX [1]): 1.699

Compound: CC(=O)N1C(=O)/C(=N\n2cnc3c(c(-c4ccc(Br)cc4)cn3-c3ccc(S(N)(=O)=O)cc3)c2=N)c2ccccc21 [B0037]
- log10 of Ki in nM (CA IX [1]; [4]): 0.491

Compound: NS(=O)(=O)c1ccc(-n2c(S)nc3cc(F)ccc3c2=O)cc1 [A0315]
- log10 of Ki in nM (CA IX [1]; [4]): 0.708

Compound: COc1ccc(-c2cn(-c3ccc(S(N)(=O)=O)cc3)c(=S)[nH]2)cc1 [A1063]
- log10 of Ki in nM (CA IX [1]; [5]): 1.477

Compound: Cc1ccc(-n2c(=S)[nH]c3c(c(-c4ccc(Br)cc4)cn3-c3ccc(S(N)(=O)=O)cc3)c2=N)cc1 [A1740]
- log10 of Ki in nM (CA IX [1]; [4]): 2.210

Compound: COc1cc(OC)c(/C=C(\C#N)C(=O)Nc2ccc(S(N)(=O)=O)cc2)c(OC)c1 [A0495]
- log10 of Ki in nM (CA IX [1]; [5]): 0.892

Compound: Cc1ccc(-c2cnc(C3CC3)o2)cc1S(N)(=O)=O [A1938]
- log10 of Ki in nM (CA IX [1]; [3]): 2.502

Compound: CCOC(=O)c1cc(O)ccc1O [A2120]
- log10 of Ki in nM (CA IX [1]): 2.934

Compound: NS(=O)(=O)OC1CCN(S(=O)(=O)[C@@H]2O[C@H](CO)[C@@H](O)[C@H](O)[C@H]2O)CC1 [A0701]
- log10 of Ki in nM (CA IX [1]; [3]): 1.041

Compound: NS(=O)(=O)OCCCCOS(N)(=O)=O [A2532]
- log10 of Ki in nM (CA IX [1]): 4.732

Compound: NS(=O)(=O)c1cnccc1-n1ccc(=O)cc1 [A0836]
- log10 of Ki in nM (CA IX [1]; [5]): 1.262

Compound: NS(=O)(=O)c1ccc(CNC(=O)Cc2ccc(F)cc2)cc1 [A0160]
- log10 of Ki in nM (CA IX [1]; [5]): 0.491

Compound: O=C1c2ccccc2S(=O)(=O)N1Cc1cccc([N+](=O)[O-])c1 [A0700]
- log10 of Ki in nM (CA IX [1]; [5]): 1.041

From publication PMC6151961 (Journal of Enzyme Inhibition and Medicinal Chemistry, 2018)
